Each structure is given as a SMILES string.

In the assay the target is T1, human M4 muscarinic acetylcholine receptor (Homo sapiens, UniProt P08173).
T1 construct: expressed in transfected cells; host or cells: CHO-K1
T1 sequence (P08173 1-479): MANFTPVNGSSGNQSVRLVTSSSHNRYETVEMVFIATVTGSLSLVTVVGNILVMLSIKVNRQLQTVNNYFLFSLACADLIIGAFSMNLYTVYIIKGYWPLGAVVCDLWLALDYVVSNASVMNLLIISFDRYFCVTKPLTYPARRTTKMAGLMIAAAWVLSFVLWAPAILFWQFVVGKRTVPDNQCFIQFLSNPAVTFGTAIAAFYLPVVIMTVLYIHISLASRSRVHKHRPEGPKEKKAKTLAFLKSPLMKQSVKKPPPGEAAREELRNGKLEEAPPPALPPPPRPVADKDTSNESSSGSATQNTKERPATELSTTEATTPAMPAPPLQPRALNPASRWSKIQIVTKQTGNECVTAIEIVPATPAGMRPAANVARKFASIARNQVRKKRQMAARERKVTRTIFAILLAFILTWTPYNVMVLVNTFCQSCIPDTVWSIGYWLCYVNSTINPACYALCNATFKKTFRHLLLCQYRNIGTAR
In words: human FLIPR-based M4 PAM assay (Ca2+ mobilization, CHO-K1 cells with human M4 receptor and Gαqi5). The assay is classed as cell-based. The note with it: acetylcholine at 20% of maximum response, read-out: M4 PAM IP. Here is the method:
In a typical experiment the M4 muscarinic acetylcholine receptor modulating activity of the compounds of the present invention was determined in accordance with the following experimental method. CHO-K1 cells stably transfected with human M4 receptor and chimeric G-protein Gαqi5 (Coward P, et al., Analytical Biochemistry, 270:242-248 (1999)) are thawed from liquid N2 storage, resuspended in growth medium, plated in black, clear bottom 384 well plates, and incubated 16-20 hours at 37° C., 5% CO2. On the day of assay, growth medium is removed, the cells are washed 2 times with wash buffer, and cells are incubated in dye loading buffer at 37° C., 5% CO2 for ˜1 hour. […] Next, 10 uL of acetylcholine is added (final concentration calculated so as to achieve 20% of the maximum acetycholine response), and the fluorescence reading is continued for 3.5 min. In some cases, a third addition of acetylcholine (final concentration calculated to achieve 70% of the maximal acetylcholine response) is performed. The resulting dose response curves are fit to a 4 parameter logistic equation and the final result is determined as the inflection point (IP) of the curve
CHO-K1 cells stably transfected with human M4 receptor and chimeric G-protein Gαqi5 are thawed from liquid N2 storage, resuspended in growth medium, plated in black, clear bottom 384 well plates, and incubated 16-20 hours at 37° C., 5% CO2.
On the day of assay, growth medium is removed, the cells are washed 2 times with wash buffer, and cells are incubated in dye loading buffer at 37° C., 5% CO2 for ˜1 h. […] Next, 10 uL of acetylcholine is added (final concentration calculated so as to achieve 20% of the maximum acetycholine response), and the fluorescence reading is continued for 3.5 min. In some cases, a third addition of acetylcholine (final concentration calculated to achieve 70% of the maximal acetylcholine response) is performed.
(In general: A change in cytosolic calcium serves as a functional read-out for many receptors and channels.)
Take `Cc1nc2ccc(OC3CCN(c4nc5c(cc4C)C(=O)NC5)CC3)cc2o1` [Example 69, 3-methyl-2-(4-((2-methylbenzo[d]oxazol-6-yl)oxy)piperidin-1-yl)-6,7-dihydro-5H-pyrrolo[3,4-b]pyridin-5-one]: the EC50 is 88 nM.

In the case of `Cc1cc2c(nc1N1CCC(OCC3CC3(C)C)CC1)CNC2=O` (stereo not drawn) [Example 311, 2-(4-((2,2-Dimethylcyclopropyl)methoxy)piperidin-1-yl)-3-methyl-6,7-dihydro-5H-pyrrolo[3,4-b]pyridin-5-one], the EC50 stood at 686 nM.

In the case of `Cc1cc2c(nc1N1CCC(OCC3(C)CCCC3)CC1)CNC2=O` [Example 178, 3-methyl-2-(4-((1-methylcyclopentyl)meth-oxy)piperidin-1-yl)-6,7-dihydro-5H-pyrrolo[3,4-b]pyridin-5-one], the EC50 stood at 2480 nM.

Turning to `Cc1cc2c(nc1N1CCC(Oc3cnc4c(c3)NCCO4)CC1)CNC2=O` [Example 145, 2-(4-((2,3-dihydro-1H-pyrido[2,3-b][1,4]oxazin-7-yl)oxy)piperidin-1-yl)-3-methyl-6,7-dihydro-5H-pyrrolo[3,4-b]pyridin-5-one], the EC50 is 2160 nM.

Turning to `Cc1c(N2CC[C@@H](OCC3(C)CC3)[C@@H](F)C2)nc2c(c1C)C(=O)N(C)[C@H]2CO` [Example 342A, (R)-2-((3S,4R)-3-fluoro-4-((1-methylcyclopropyl)methoxy)piperidin-1-yl)-7-(hydroxymethyl)-3,4,6-trimethyl-6,7-dihydro-5H-pyrrolo[3,4-b]pyridin-5-one], the EC50 was 884 nM.

As for `Cc1cc2c(nc1N1CCC(Oc3cccc(C#N)c3)CC1)CN(CCN(C)C)C2=O` [Example 236, 3-((1-(6-(2-(dimethylamino)ethyl)-3-methyl-5-oxo-6,7-dihydro-5H-pyrrolo[3,4-b]pyridin-2-yl)piperidin-4-yl)oxy)benzonitrile], the EC50 was 317 nM.

Consider `Cc1cc2c(nc1N1CC[C@H](Oc3ccc4c(cnn4C)c3)[C@H](F)C1)CNC2=O` [Example 23, 2-((3R,4S)-3-fluoro-4-((1-methyl-1H-indazol-5-yl)oxy)piperidin-1-yl)-3-methyl-6,7-dihydro-5H-pyrrolo[3,4-b]pyridin-5-one], for which the EC50 worked out at 70 nM.

Turning to `COc1ccc(OC2CCN(c3nc4c(cc3C)C(=O)N(C[C@H](O)C(F)(F)F)C4)CC2)cn1` [Example 319, (S)-2-(4-((6-methoxypyridin-3-yl)oxy)piperidin-1-yl)-3-methyl-6-(3,3,3-trifluoro-2-hydroxypropyl)-6,7-dihydro-5H-pyrrolo[3,4-b] pyridin-5-one], the EC50 came to 96 nM.

Regarding `COc1ccc(OC2CCN(c3nc4c(cc3C)C(=O)N(C)C4)CC2)cn1` [Example 18, 2-(4-((6-methoxypyridin-3-yl)oxy)piperidin-1-yl)-3,6-dimethyl-6,7-dihydro-5H-pyrrolo[3,4-b]pyridin-5-one], the EC50 came out at 36 nM.

Take `COc1ccc(OC2CCN(c3nc4c(cc3C)C(=O)N(Cc3ccncc3)C4=O)CC2)cn1` [Example 296, 2-(4-((6-Methoxypyridin-3-yl)oxy)piperidin-1-yl)-3-methyl-6-(pyridin-4-ylmethyl)-5H-pyrrolo[3,4-b]pyridine-5,7(6H)-dione]: the EC50 worked out at 83 nM.

For `Cc1c(N2CCC(Oc3ccc4c(c3)OCC4)CC2)nc2c(c1C)C(=O)N(CCO)C2` [Example 266A, 2-(4-((2,3-dihydrobenzofuran-6-yl)oxy)piperidin-1-yl)-6-(2-hydroxyethyl)-3,4-dimethyl-6,7-dihydro-5H-pyrrolo[3,4-b]pyridin-5-one], the EC50 stood at 44 nM.

`Cc1cc2c(nc1N1CCC(Oc3cnn(C4CC4)c3)CC1)CNC2=O` [Example 311A, 2-(4-((1-cyclopropyl-1H-pyrazol-4-yl)oxy)piperidin-1-yl)-3-methyl-6,7-dihydro-5H-pyrrolo[3,4-b]pyridin-5-one]: the EC50 amounted to 108 nM.

For `Cc1c(N2CCC(Oc3cnc4c(c3)COC4)CC2)nc2c(c1C)C(=O)NC2` [Example 227, 2-(4-((5,7-dihydrofuro[3,4-b]pyridin-3-yl)oxy)piperidin-1-yl)-3,4-dimethyl-6,7-dihydro-5H-pyrrolo[3,4-b]pyridin-5-one], the EC50 turned out to be 435 nM.

With `Cc1c(N2CC[C@@H](OCC3(C)CC3)[C@H](F)C2)nc2c(c1C)C(=O)N(CCO)C2` [Example 267F, 2-((3R,4R)-3-fluoro-4-((1-methylcyclopropyl)methoxy)piperidin-1-yl)-6-(2-hydroxyethyl)-3,4-dimethyl-6,7-dihydro-5H-pyrrolo[3,4-b]pyridin-5-one], the EC50 came to 17 nM.

For `Cc1cc2c(nc1N1CCC(Oc3cnc4c(c3)COC4)CC1)CN(CCO)C2=O` [Example 236A, 2-(4-((5,7-dihydrofuro[3,4-b]pyridin-3-yl)oxy)piperidin-1-yl)-6-(2-hydroxyethyl)-3-methyl-6,7-dihydro-5H-pyrrolo[3,4-b]pyridin-5-one], the EC50 was found to be 146 nM.

As for `Cc1cc2c(nc1N1CC[C@@H](Oc3ccc4c(cnn4C)c3)[C@H](F)C1)CNC2=O` [Example 25, 2-((3R,4R)-3-fluoro-4-((1-methyl-1H-indazol-5-yl)oxy)piperidin-1-yl)-3-methyl-6,7-dihydro-5H-pyrrolo[3,4-b]pyridin-5-one], the EC50 was found to be 75 nM.

With `COc1ccc(OC2CCN(c3nc4c(cc3C=O)C(=O)NC4)CC2)cn1` [Example 306, 2-(4-((6-Methoxypyridin-3-yl)oxy)piperidin-1-yl)-5-oxo-6,7-dihydro-5H-pyrrolo[3,4-b]pyridine-3-carbaldehyde], the EC50 was determined as 320 nM.

As for `COc1ccc(OC2CCN(c3nc4c(cc3C)C(=O)N(C)[C@@H]4CO)CC2)cn1` (single isomer, unassigned) [Example 273B], the EC50 amounted to 23 nM.

On to `Cc1cc2c(nc1N1CC[C@@H](Oc3ccc4c(c3)C(=O)N(C)C4)[C@@H](F)C1)CNC2=O` [Example 163, 2-((3S,4R)-3-fluoro-4-((2-methyl-3-oxoisoindolin-5-yl)oxy)piperidin-1-yl)-3-methyl-6,7-dihydro-5H-pyrrolo[3,4-b]pyridin-5-one], for which the EC50 amounted to 277 nM.

Regarding `Cc1cc2c(nc1N1CCC(Oc3ccccn3)CC1)CNC2=O` [Example 131, 3-methyl-2-(4-(pyridin-2-yloxy)piperidin-1-yl)-6,7-dihydro-5H-pyrrolo[3,4-b]pyridin-5-one], the EC50 is 1520 nM.

For the compound `Cc1cc2c(nc1N1CCC(Oc3ccc(F)c(F)c3)CC1)[C@H](CO)N(C)C2=O` [Example 348, (R)-2-(4-(3,4-difluorophenoxy)piperidin-1-yl)-7-(hydroxymethyl)-3,6-dimethyl-6,7-dihydro-5H-pyrrolo[3,4-b]pyridin-5-one], the EC50 amounted to 8170 nM.

With `COc1ccc(OC2CCN(c3nc4c(cc3CO)C(=O)NC4)CC2)cn1` [Example 301, 3-(Hydroxymethyl)-2-(4-((6-methoxypyridin-3-yl)oxy)piperidin-1-yl)-6,7-dihydro-5H-pyrrolo[3,4-b]pyridin-5-one], the EC50 is 1140 nM.

For the compound `Cc1cc2c(nc1N1CCC(Oc3ccc(F)c(F)c3)CC1)CNC2=O` [Example 81, 2-(4-(3,4-difluorophenoxy)piperi-din-1-yl)-3-methyl-6,7-dihydro-5H-pyrrolo[3,4-b]pyridin-5-one], the EC50 is 37 nM.

In the case of `Cc1cc2c(nc1N1CCC(Oc3ccc(OCC(F)(F)F)nc3)CC1)CNC2=O` [Example 120, 3-methyl-2-(4-((6-(2,2,2-trifluoroethoxy)pyridin-3-yl)oxy)piperidin-1-yl)-6,7-dihydro-5H-pyrrolo[3,4-b]pyridin-5-one], the EC50 came to 256 nM.

Consider `Cc1c(N2CCC(Oc3ccc4c(c3)COCC4)CC2)nc2c(c1C)C(=O)N(CCO)C2` [Example 268B, 6-(2-hydroxyethyl)-2-(4-(isochroman-7-yloxy)piperidin-1-yl)-3,4-dimethyl-6,7-dihydro-5H-pyrrolo[3,4-b]pyridin-5-one], for which the EC50 turned out to be 63 nM.

As for `CCOc1ccc(OC2CCN(c3nc4c(cc3C)C(=O)N[C@@H]4CCO)CC2)cn1` (single isomer, unassigned) [Example 234B], the EC50 came to 78 nM.

Consider `COc1ccc(O[C@H]2C[C@H]3CC[C@@H](C2)N3c2nc3c(cc2C)C(=O)NC3)cn1` [Example 97, 2-(endo-3-((6-methoxypyridin-3-yl)oxy)-8-azabicyclo[3.2.1]octan-8-yl)-3-methyl-6,7-dihydro-5H-pyrrolo[3,4-b]pyridin-5-one], for which the EC50 worked out at 800 nM.

For the origin of these results see patent US10329289B2, “6,7-dihydro-5H-pyrrolo[3,4-B]pyridin-5-one allosteric modulators of the M4 muscarinic acetylcholine receptor” (Merck Sharp & Dohme Corp., priority 2015, dated 2019).
